Holding throughout (assay type): cell-based, S. cerevisiae
One test relates to strains A and B. Nature of the test: Whole-cell comparison of strains A and B (and wild type) with antifungal compounds that do not target IPC synthase. Conditions: strains A and B compared. Here is the method: (§1) Strains A and B, and wild-type strain YPH499 (transformed with YEp352) were tested for sensitivity to a variety of known antifungal compounds. Cells were grown in YEPD or SC-URA (2% glucose) liquid culture and dispensed into the wells of a 96-well microtiter dish containing decreasing amounts of antifungal compounds, as in Example 2.

The subject of another test is Strain B. Nature of the test: Sensitivity to antifungal compounds (MIC), Strain B. Conditions: for MIC: Saccharomyces cerevisiae, read-out: Minimum Inhibitory Concentration. The protocol: as §1
(§2) ^a Cells were grown in SCURA (2% glucose)

Test [1] has as its system YPH499 (transformed by YEp352). Description: Sensitivity to antifungal compounds (MIC), wild-type YPH499 (YEp352). The note with it: for MIC: Saccharomyces cerevisiae, read-out: Minimum Inhibitory Concentration. Here is the method:
as §1, §2
^b YPH499 is transformed by YEp352.

Another test concerns Strain A. Description: Sensitivity to antifungal compounds (MIC), Strain A. Conditions: for MIC: Saccharomyces cerevisiae, read-out: Minimum Inhibitory Concentration. Here is the method:
as §1, §2

From US5976866A, “Screen for inhibitors of fungal IPC synthase” (Eli Lilly and Company, priority 1997, dated 1999) come the findings set out here.

Converted amounts (≈) assume the structure as drawn. Like-named read-outs stand apart in the source and are kept apart here.

Turning to `C[C@@H]1[C@H](O)[C@@H](C)/C=C/C=C/CC/C=C/C=C/C=C/C=C/C(O[C@H]2O[C@H](C)[C@@H](O)[C@H](N)[C@@H]2O)CC2O[C@](O)(CC(O)C(O)CCC(O)CC(O)CC(O)CC(=O)O[C@H]1C)CC(O)C2C(=O)O` (some centres unmarked) [Nystatin], the “effect on strains A and B (in words)” value in the test on strains A and B is “equally affected”. The “Minimum Inhibitory Concentration” value (with Strain B (SC-URA (2% glucose)); in test [1] (SC-URA (2% glucose)); in the test with Strain A (SC-URA (2% glucose))) was 20 mg/mL each time.

`CC(=O)N1CCN(c2ccc(OCC3COC(Cn4ccnc4)(c4ccc(Cl)cc4Cl)O3)cc2)CC1` (centres unmarked) [ketoconazole]: the “effect on strains A and B (in words)” value in the test on strains A and B was “equally affected”.

Regarding `OC(Cn1cncn1)(Cn1cncn1)c1ccc(F)cc1F` [Fluconazole], the “effect on strains A and B (in words)” value in the test with strains A and B is “equally affected”. For the same molecule, the MIC (in the test on Strain B (SC-URA (2% glucose)); in test [1] (SC-URA (2% glucose)); in the test with Strain A (SC-URA (2% glucose))) was greater than 80000 µg/mL in each case.

Consider `CCC(C)n1ncn(-c2ccc(N3CCN(c4ccc(OCC5COC(Cn6cncn6)(c6ccc(Cl)cc6Cl)O5)cc4)CC3)cc2)c1=O` (centres unmarked) [Itraconazole], for which the MIC (in the test on Strain B (SC-URA (2% glucose)); in test [1] (SC-URA (2% glucose)); in the test with Strain A (SC-URA (2% glucose))) was 1200 µg/mL (≈ 1700 µM) each time.

Consider `C[C@@H]1[C@H](O)[C@@H](C)/C=C/C=C/C=C/C=C/C=C/C=C/C=C/[C@H](O[C@@H]2O[C@H](C)[C@@H](O)[C@H](N)[C@@H]2O)C[C@@H]2O[C@](O)(C[C@@H](O)C[C@@H](O)[C@H](O)CC[C@@H](O)C[C@@H](O)CC(=O)O[C@H]1C)C[C@H](O)[C@H]2C(=O)O` [Amphotericin B], for which the “effect on strains A and B (in words)” value in the test on strains A and B is recorded as “equally affected”. Moreover, the MIC (in the test on Strain B (SC-URA (2% glucose)); in test [1] (SC-URA (2% glucose)); in the test with Strain A (SC-URA (2% glucose))) was 2500 µg/mL (≈ 2710 µM) each time.

Turning to `C[C@@H]1C[C@@H]([C@H](O)CC2CC(=O)NC(=O)C2)C(=O)[C@@H](C)C1` [Cycloheximide], in the test with strains A and B, the “effect on strains A and B (in words)” value is listed as “equally affected”. For the same molecule, the MIC in the test with Strain B turned out to be 600 µg/mL (≈ 2130 µM); in test [1], 300 µg/mL (≈ 1070 µM); in the test on Strain A, 300 µg/mL (≈ 1070 µM).
